# Experimental data taken from patent US20230085307A1, “PYRIDAZINONE COMPOUND AND HERBICIDE” (NISSAN CHEMICAL CORPORATION, priority 2019, published 2023).
# Tests used:
# wild oat [1] = test: Test Example 4: herbicidal effect by soil treatment (Table 19, symbol I); format: in vivo, wild oat (Avena fatua)
# Method in brief: (§1)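 Seeds were sown in sterilized diluvial soil and covered with about 1.5 cm of soil. An emulsion formulation diluted with water to a predetermined herbicide amount was sprayed evenly onto the soil surface. Plants grew in a greenhouse at 25° C. to 30° C., and the effect was scored three weeks after application using criteria from an earlier test.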
# persian speedwell [2] = test: Test Example 5: herbicidal effect by foliage application, plastic box (Table 20, symbol R); format: in vivo, Persian speedwell (Veronica persica); settings: foliage application, 320 g/ha
# Method in brief: (§2)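 Plants sown in sterilized diluvial soil and grown 14 days in a greenhouse at 25° C to 30° C, then sprayed on the foliage with the compound's emulsion diluted in water to a predetermined herbicide amount. Injury to weeds and crops scored three weeks after application on a visual rating scale.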
# rice flat sedge = test: Test Example 3: herbicidal effect by foliage application, Wagner pot (Table 18, symbol E); format: in vivo, rice flat sedge (Cyperus iria); settings: 320 g/ha
# Method in brief: (§3)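 Plants were sown in alluvial soil held under 0.1–0.5 cm standing water and grown 14 days in a greenhouse at 25–30 °C. An emulsifiable formulation, water-diluted to the set dose, was then sprayed onto the foliage, and effects were scored three weeks later using previously defined criteria.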
# Chinese sprangletop = test: Test Example 3: herbicidal effect by foliage application, Wagner pot (Table 18, symbol D); format: in vivo, chinese sprangletop (Leptochloa chinensis); settings: 320 g/ha
# Method in brief: as §3
# barnyard grass [3] = test: Test Example 4: herbicidal effect by soil treatment (Table 19, symbol H); format: in vivo, barnyard grass (Echinochloa crus-galli)
# Method in brief: as §1
# barnyard grass [4] = test: Test Example 5: herbicidal effect by foliage application, plastic box (Table 20, symbol H); format: in vivo, barnyard grass (Echinochloa crus-galli); settings: foliage application, 320 g/ha
# Method in brief: as §2
# windgrass [5] = test: Test Example 5: herbicidal effect by foliage application, plastic box (Table 20, symbol L); format: in vivo, windgrass (Apera spica-venti); settings: foliage application, 320 g/ha
# Method in brief: as §2
# lambsquarters [6] = test: Test Example 5: herbicidal effect by foliage application, plastic box (Table 20, symbol O); format: in vivo, lambsquarters (Chenopodium album); settings: foliage application, 320 g/ha
# Method in brief: as §2
# blackgrass [7] = test: Test Example 4: herbicidal effect by soil treatment (Table 19, symbol J); format: in vivo, blackgrass (Alopecurus myosuroides)
# Method in brief: as §1
# southern crabgrass [8] = test: Test Example 4: herbicidal effect by soil treatment (Table 19, symbol F); format: in vivo, southern crabgrass (Digitaria ciliaris)
# Method in brief: as §1
# lambsquarters [9] = test: Test Example 4: herbicidal effect by soil treatment (Table 19, symbol O); format: in vivo, lambsquarters (Chenopodium album)
# Method in brief: as §1
# barnyard grass [10] = test: Test Example 3: herbicidal effect by foliage application, Wagner pot (Table 18, symbol H); format: in vivo, barnyard grass (Echinochloa crus-galli); settings: 320 g/ha
# Method in brief: as §3
# velvetleaf [11] = test: Test Example 4: herbicidal effect by soil treatment (Table 19, symbol M); format: in vivo, velvetleaf (Abutilon theophrasti)
# Method in brief: as §1
# green foxtail [12] = test: Test Example 5: herbicidal effect by foliage application, plastic box (Table 20, symbol G); format: in vivo, green foxtail (Setaria viridis); settings: foliage application, 320 g/ha
# Method in brief: as §2
# Italian ryegrass [13] = test: Test Example 5: herbicidal effect by foliage application, plastic box (Table 20, symbol K); format: in vivo, Italian ryegrass (Lolium multiflorum); settings: foliage application, 320 g/ha
# Method in brief: as §2
# chickweed = test: Test Example 4: herbicidal effect by soil treatment (Table 19, symbol P); format: in vivo, common chickweed (Stellaria media)
# Method in brief: as §1
# persian speedwell [14] = test: Test Example 4: herbicidal effect by soil treatment (Table 19, symbol R); format: in vivo, Persian speedwell (Veronica persica)
# Method in brief: as §1
# late watergrass = test: Test Example 1: herbicidal activity, application before weed generation under submerged conditions (Table 16, symbol A); format: in vivo, late watergrass (Echinochloa oryzicola)
# Method in brief: (§4)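 Emulsion formulation, water-diluted to set dose, was put onto the flooded surface (4 cm depth, alluvial soil) the same day weeds were sown and 2.5-leaf rice transplanted. After 3 weeks at 25-30 °C under glass, each species was rated 0 (≤5% kill) to 5 (≥90% kill).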
# redroot pigweed = test: Test Example 4: herbicidal effect by soil treatment (Table 19, symbol N); format: in vivo, redroot pigweed (Amaranthus retroflexus)
# Method in brief: as §1
# Japanese bulrush = test: Test Example 1: herbicidal activity, application before weed generation under submerged conditions (Table 16, symbol B); format: in vivo, Japanese bulrush (Schoenoplectus juncoides)
# Method in brief: as §4
# wild oat [15] = test: Test Example 5: herbicidal effect by foliage application, plastic box (Table 20, symbol I); format: in vivo, wild oat (Avena fatua); settings: foliage application, 320 g/ha
# Method in brief: as §2
# Italian ryegrass [16] = test: Test Example 4: herbicidal effect by soil treatment (Table 19, symbol K); format: in vivo, Italian ryegrass (Lolium multiflorum)
# Method in brief: as §1
# velvetleaf [17] = test: Test Example 5: herbicidal effect by foliage application, plastic box (Table 20, symbol M); format: in vivo, velvetleaf (Abutilon theophrasti); settings: foliage application, 320 g/ha
# Method in brief: as §2
# oval-leafed pondweed = test: Test Example 1: herbicidal activity, application before weed generation under submerged conditions (Table 16, symbol C); format: in vivo, oval-leafed pondweed (Monochoria vaginalis)
# Method in brief: as §4
# green foxtail [18] = test: Test Example 4: herbicidal effect by soil treatment (Table 19, symbol G); format: in vivo, green foxtail (Setaria viridis)
# Method in brief: as §1
# southern crabgrass [19] = test: Test Example 5: herbicidal effect by foliage application, plastic box (Table 20, symbol F); format: in vivo, southern crabgrass (Digitaria ciliaris); settings: foliage application, 320 g/ha
# Method in brief: as §2
# blackgrass [20] = test: Test Example 5: herbicidal effect by foliage application, plastic box (Table 20, symbol J); format: in vivo, blackgrass (Alopecurus myosuroides); settings: foliage application, 320 g/ha
# Method in brief: as §2
# windgrass [21] = test: Test Example 4: herbicidal effect by soil treatment (Table 19, symbol L); format: in vivo, windgrass (Apera spica-venti)
# Method in brief: as §1
# [22] = amount of applied herbicide 320 g/ha
smiles,measurement,setting,value
Cc1nn(C)c(=O)c(-c2c(-c3ccc(C(F)(F)F)cc3)sc3ccc(F)cc23)c1O [2-020],"herbicidal effect rating, I: wild oat",wild oat [1]; 320 g/ha,0 (Herbicidal rate of 5% or less (almost no effect))
same,effect on persian speedwell (R),persian speedwell [2]; 3 weeks after application,5 (Herbicidal rate of 90% or more (almost completely withered))
same,"herbicidal effect on E (rice flat sedge), rating 0-5",rice flat sedge,5 (Herbicidal rate of 90% or more (almost completely withered))
same,"herbicidal effect on D (Chinese sprangletop), rating 0-5",Chinese sprangletop,3 (Herbicidal rate of 40% or more and less than 70%)
same,"herbicidal effect rating, H: barnyard grass",barnyard grass [3]; 320 g/ha,2 (Herbicidal rate of 20% or more and less than 40%)
same,effect on barnyard grass (H),barnyard grass [4]; 3 weeks after application,5 (Herbicidal rate of 90% or more (almost completely withered))
same,effect on windgrass (L),windgrass [5]; 3 weeks after application,5 (Herbicidal rate of 90% or more (almost completely withered))
same,effect on lambsquarters (O),lambsquarters [6]; 3 weeks after application,5 (Herbicidal rate of 90% or more (almost completely withered))
same,"herbicidal effect rating, J: blackgrass",blackgrass [7]; 320 g/ha,3 (Herbicidal rate of 40% or more and less than 70%)
same,"herbicidal effect rating, F: southern crabgrass",southern crabgrass [8]; 320 g/ha,3 (Herbicidal rate of 40% or more and less than 70%)
same,"herbicidal effect rating, O: lambsquarters",lambsquarters [9]; 320 g/ha,5 (Herbicidal rate of 90% or more (almost completely withered))
same,"herbicidal effect on H (barnyard grass), rating 0-5",barnyard grass [10],5 (Herbicidal rate of 90% or more (almost completely withered))
same,"herbicidal effect rating, M: velvetleaf",velvetleaf [11]; 320 g/ha,3 (Herbicidal rate of 40% or more and less than 70%)
same,effect on green foxtail (G),green foxtail [12]; 3 weeks after application,5 (Herbicidal rate of 90% or more (almost completely withered))
same,effect on Italian ryegrass (K),Italian ryegrass [13]; 3 weeks after application,5 (Herbicidal rate of 90% or more (almost completely withered))
same,"herbicidal effect rating, P: chickweed",chickweed; 320 g/ha,3 (Herbicidal rate of 40% or more and less than 70%)
same,"herbicidal effect rating, R: persian speedwell",persian speedwell [14]; 320 g/ha,5 (Herbicidal rate of 90% or more (almost completely withered))
same,Herbicidal effect on A: late watergrass (grade 0-5),late watergrass; 320 g/ha applied herbicide,0 (Herbicidal rate of 5% or less (almost no effect))
same,"herbicidal effect rating, N: redroot pigweed",redroot pigweed; 320 g/ha,5 (Herbicidal rate of 90% or more (almost completely withered))
same,Herbicidal effect on B: Japanese bulrush (grade 0-5),Japanese bulrush; 320 g/ha applied herbicide,2 (Herbicidal rate of 20% or more and less than 40%)
same,effect on wild oat (I),wild oat [15]; 3 weeks after application,4 (Herbicidal rate of 70% or more and less than 90%)
same,"herbicidal effect rating, K: Italian ryegrass",Italian ryegrass [16]; 320 g/ha,5 (Herbicidal rate of 90% or more (almost completely withered))
same,effect on velvetleaf (M),velvetleaf [17]; 3 weeks after application,5 (Herbicidal rate of 90% or more (almost completely withered))
same,Herbicidal effect on C: oval-leafed pondweed (grade 0-5),oval-leafed pondweed; 320 g/ha applied herbicide,0 (Herbicidal rate of 5% or less (almost no effect))
same,"herbicidal effect rating, G: green foxtail",green foxtail [18]; 320 g/ha,4 (Herbicidal rate of 70% or more and less than 90%)
same,effect on southern crabgrass (F),southern crabgrass [19]; 3 weeks after application,5 (Herbicidal rate of 90% or more (almost completely withered))
same,effect on blackgrass (J),blackgrass [20]; 3 weeks after application,3 (Herbicidal rate of 40% or more and less than 70%)
same,"herbicidal effect rating, L: windgrass",windgrass [21]; 320 g/ha,5 (Herbicidal rate of 90% or more (almost completely withered))
CCOc1ccccc1-c1sc2cc(OC)c(Cl)cc2c1-c1c(O)c(C)nn(C)c1=O [5-072],"I: wild oat, herbicidal effect grade",wild oat [1]; [22],0 (Herbicidal rate of 5% or less (almost no effect))
same,herbicidal effect on persian speedwell (R),persian speedwell [2]; three weeks after application,5 (Herbicidal rate of 90% or more (almost completely withered))
same,herbicidal effect on rice flat sedge (E),rice flat sedge,5 (Herbicidal rate of 90% or more (almost completely withered))
same,herbicidal effect on Chinese sprangletop (D),Chinese sprangletop,3 (Herbicidal rate of 40% or more and less than 70%)
same,"H: barnyard grass, herbicidal effect grade",barnyard grass [3]; [22],1 (Herbicidal rate of 5% or more and less than 20%)
same,herbicidal effect on barnyard grass (H),barnyard grass [4]; three weeks after application,5 (Herbicidal rate of 90% or more (almost completely withered))
same,herbicidal effect on windgrass (L),windgrass [5]; three weeks after application,5 (Herbicidal rate of 90% or more (almost completely withered))
same,herbicidal effect on lambsquarters (O),lambsquarters [6]; three weeks after application,4 (Herbicidal rate of 70% or more and less than 90%)
same,"J: blackgrass, herbicidal effect grade",blackgrass [7]; [22],0 (Herbicidal rate of 5% or less (almost no effect))
same,"F: southern crabgrass, herbicidal effect grade",southern crabgrass [8]; [22],5 (Herbicidal rate of 90% or more (almost completely withered))
same,"O: lambsquarters, herbicidal effect grade",lambsquarters [9]; [22],3 (Herbicidal rate of 40% or more and less than 70%)
same,herbicidal effect on barnyard grass (H),barnyard grass [10],5 (Herbicidal rate of 90% or more (almost completely withered))
same,"M: velvetleaf, herbicidal effect grade",velvetleaf [11]; [22],1 (Herbicidal rate of 5% or more and less than 20%)
same,herbicidal effect on green foxtail (G),green foxtail [12]; three weeks after application,5 (Herbicidal rate of 90% or more (almost completely withered))
same,herbicidal effect on Italian ryegrass (K),Italian ryegrass [13]; three weeks after application,0 (Herbicidal rate of 5% or less (almost no effect))
same,"P: chickweed, herbicidal effect grade",chickweed; [22],2 (Herbicidal rate of 20% or more and less than 40%)
same,"R: persian speedwell, herbicidal effect grade",persian speedwell [14]; [22],3 (Herbicidal rate of 40% or more and less than 70%)
same,"Herbicidal effect, A: late watergrass",late watergrass; [22],0 (Herbicidal rate of 5% or less (almost no effect))
same,"N: redroot pigweed, herbicidal effect grade",redroot pigweed; [22],3 (Herbicidal rate of 40% or more and less than 70%)
same,"Herbicidal effect, B: Japanese bulrush",Japanese bulrush; [22],2 (Herbicidal rate of 20% or more and less than 40%)
same,herbicidal effect on wild oat (I),wild oat [15]; three weeks after application,2 (Herbicidal rate of 20% or more and less than 40%)
same,"K: Italian ryegrass, herbicidal effect grade",Italian ryegrass [16]; [22],0 (Herbicidal rate of 5% or less (almost no effect))
same,herbicidal effect on velvetleaf (M),velvetleaf [17]; three weeks after application,5 (Herbicidal rate of 90% or more (almost completely withered))
same,"Herbicidal effect, C: oval-leafed pondweed",oval-leafed pondweed; [22],0 (Herbicidal rate of 5% or less (almost no effect))
same,"G: green foxtail, herbicidal effect grade",green foxtail [18]; [22],4 (Herbicidal rate of 70% or more and less than 90%)
same,herbicidal effect on southern crabgrass (F),southern crabgrass [19]; three weeks after application,5 (Herbicidal rate of 90% or more (almost completely withered))
same,herbicidal effect on blackgrass (J),blackgrass [20]; three weeks after application,3 (Herbicidal rate of 40% or more and less than 70%)
same,"L: windgrass, herbicidal effect grade",windgrass [21]; [22],0 (Herbicidal rate of 5% or less (almost no effect))
